Data set [1] concerns adiponectin. The experiment in a line: 24-week randomized, double-blind, placebo-controlled study: serum adiponectin levels in subjects with type 2 diabetes. In kind it is in vivo, human. Particulars: for Mean Change in adiponectin from baseline to Week 24: LOCF; for Mean Change in adiponectin from baseline to Week 24 / Mean Adiponectin, Week 24 / Mean Adiponectin, Week 0: type 2 diabetes, serum; for Mean Adiponectin, Week 0: baseline (Week 0). On the procedure: A randomized, double-blind, placebo-controlled, 24-week study was conducted in which adiponectin levels were measured. […] 367 subjects with type 2 diabetes (TD2)—a disease in which patient adiponectin levels are reduced—were randomly assigned to receive either 0.5, 1, 2 or 3 milligrams (“mg”) of INT131 besylate, 45 mg of pioglitazone or placebo daily for 24 weeks. To measure adiponectin levels blood was drawn at Weeks 0, 2, 6, 12 and 24.
At baseline (Week 0) mean adiponectin levels were 1.94 micrograms per milliliter (“μg/mL”). The mean adiponectin levels at baseline and Week 24, and the mean change in adiponectin levels from baseline (Week 0) to Week 24 are disclosed in Table 1, below. The standard deviation for samples tested in each group is listed in (parenthesis). Mean baseline adiponectin values were similar for the treatment groups.

For data set [2] the following is noted: subjects taking INT131 vs pioglitazone; DePaoli et al. Diabetes Care 2014; cited from earlier work.
The conditions of data set [3]: in words; cited from earlier work.
The subject of data set [4] is subjects with Relapsing Remitting Multiple Sclerosis (RRMS). Nature of the data set: 6-month placebo-controlled MRI study in Relapsing Remitting Multiple Sclerosis (CE lesions, T2 lesions, brain volume). In kind it is in vivo, human. The settings on record: for cumulative CE lesions / reduction of CE lesion burden vs. placebo / cumulative CE lesions, LSMean: over 6 months; for cumulative CE lesions: complete case analysis, placebo 7.8; for cumulative CE lesions, LSMean: placebo LSMean 6.49. On the procedure: 227 treatment-naive adult subjects (mean age 31 [range 18-50]; 65% female) were randomized into one of three arms: oral CHS-131 at 3 mg (n=76); oral CHS-131 at 1 mg (n=76); placebo (n=75), at 21 sites in Russia. 97% completed Part 1. Inclusion criteria: Relapsing Remitting Multiple Sclerosis (RRMS) for ≤3 years, ≥1 gadolinium-positive lesion within 1-year of enrollment, and an EDSS≤6 at screening. The patients underwent monthly MRI examinations with contrast to identify new inflammatory lesions. All […] were read blinded at the Buffalo Neuroimaging Center (Buffalo, N.Y.). In addition to CE lesions the images were scored for cumulative new/enlarged T2 lesions, and serial cortical and whole brain volumetric analysis.

The subject of data set [5] is adiponectin. Nature of the data set: 14-day study of serum adiponectin levels in healthy subjects. In kind it is in vivo, human. On the procedure: A study was conducted to determine the effect of INT131 on serum adiponectin levels. Thirty healthy subjects were randomly selected to receive either placebo, 0.1 mg INT131, 1 mg INT131 or 4 mg INT131 daily for 14 days. To measure adiponectin levels blood was drawn at Days 1, 4, 8 and 14.

The subject of data set [6] is HbA1c. Particulars: DePaoli et al. Diabetes Care 2014; cited from earlier work.
Data set [7] concerns HbA1c. The experiment in a line: 24-week randomized, double-blind, placebo-controlled study: HbA1c levels in subjects with type 2 diabetes. Particulars: 24 weeks. The class given is in vivo, human.

Turning to `CCc1ccc(CCOc2ccc(CC3SC(=O)NC3=O)cc2)nc1` (stereo not shown) [Pioglitazone, pioglitazone, reference compound], in the data set with adiponectin [1] (45 mg daily), the “Mean Change in adiponectin from baseline to Week 24” value worked out at 2.96 µg/mL and the “Mean Adiponectin, Week 24” value came out at 5.28 µg/mL. The “Mean Adiponectin, Week 0” value with adiponectin [1] (45 mg pioglitazone daily group) was 2.32 µg/mL.
For the compound `O=S(=O)(Nc1cc(Cl)c(Oc2cnc3ccccc3c2)c(Cl)c1)c1ccc(Cl)cc1Cl` [INT131], in data set [2], the “side effects versus pioglitazone” value is “less edema, weight gain, and hemodilution”. For the same compound, the “crossing of the blood brain barrier” value in data set [3] was “readily crosses the blood brain barrier”. For the same compound, the “Mean Change in adiponectin from baseline to Week 24” value with adiponectin [1] (0.5 mg daily) was 0.56 µg/mL; in the data set on adiponectin [1] (1 mg daily), 1.28 µg/mL; in the data set on adiponectin [1] (2 mg daily), 3.27 µg/mL; with adiponectin [1] (3 mg daily) it was 3.83 µg/mL. For the same compound, the “adiponectin treatment comparison with placebo” value in the data set on adiponectin [1] (1 mg, 2 mg, and 3 mg doses, p≤0.0109) is “statistically significant”. The “upregulation of serum adiponectin levels compared with pioglitazone” value with adiponectin [1] (2 or 3 mg INT131 vs at least 22 times the amount of pioglitazone) is “greater upregulation”. Moreover, the “Mean Adiponectin, Week 24” value amounted to 2.28 µg/mL in the data set on adiponectin [1] (0.5 mg daily), 3.15 µg/mL with adiponectin [1] (1 mg daily), 5.14 µg/mL with adiponectin [1] (2 mg daily) and 5.83 µg/mL in the data set on adiponectin [1] (3 mg daily). In addition, the “Mean Adiponectin, Week 0” value with adiponectin [1] (0.5 mg INT131 besylate daily group) was found to be 1.73 µg/mL; in the data set with adiponectin [1] (1 mg INT131 besylate daily group), 1.87 µg/mL; with adiponectin [1] (2 mg INT131 besylate daily group), 1.87 µg/mL; in the data set on adiponectin [1] (3 mg INT131 besylate daily group), 2.00 µg/mL. In addition, the “cumulative CE lesions” value in data set [4] (1 mg oral) is given as 7.6; in data set [4] (3 mg daily oral) it was 4.2 lesions. Further, the “reduction of CE lesion burden vs. placebo” value in data set [4] (1 mg oral, p=ns, RRMS) was 21%; in data set [4] (3 mg daily oral, p=0.003, RRMS), 52%. The results for the “cumulative CE lesions, LSMean” value in data set [4] (1 mg oral) and in data set [4] (3 mg daily oral) were 5.15 and 3.10, respectively. The “reduction of new/enlarged T2 lesions compared to placebo” value in data set [4] (1 mg, p=ns, RRMS) was found to be 14%; in data set [4] (3 mg, p=0.0767, RRMS), 30%. In data set [4] (3 mg daily, 6 months, RRMS), the “less cortical volume loss compared to placebo” value turned out to be 34.2%. Also, the “less whole brain volume loss compared to placebo” value in data set [4] (3 mg daily, 6 months, RRMS) is reported as 50%. Moreover, the “change in serum adiponectin levels Day 1 to Day 14 and over placebo” value in the data set on adiponectin [5] (0.1 mg daily for 14 days) was “no significant change”. Further, in the data set with adiponectin [5] (1 mg or 4 mg daily for 14 days), the “change in serum adiponectin levels over placebo and from Day 1 to Day 14” value is on record as “significant change”. Besides, the “efficacy in reducing HbA1c levels versus 45 mg of pioglitazone” value in the data set on HbA1c [6] is reported as “equally efficacious”. Besides, the “reduction of HbA1c levels as compared to placebo” value with HbA1c [7] (1, 2, and 3 mg doses daily) is given as “statistically significant reduction”. For the same compound, the “reduction of HbA1c levels compared with 45 mg of pioglitazone” value in the data set with HbA1c [7] (2 and 3 mg doses daily) was “at least as well as 45 mg of pioglitazone”.

(Values after patent publication US11253508B2, “PPARy agonist for treatment of progressive supranuclear palsy” (Coherus Biosciences, Inc., priority 2017, dated 2022).)
